US20130190237A1, “METHODS FOR CATEGORISING CANCER SUCH AS BREAST CANCER” (IMPERIAL INNOVATIONS LIMITED, priority 2010, published 2013)
Residues, ends and D or L forms follow the SMILES beside them. *: point of attachment. Cbz = O=C(OCc1ccccc1)*

Legend:
[1] = system: ERα protein in MCF7 cells; experiment: Western blotting of ERα protein levels; type: cell-based, human; settings: for ERα protein levels under LMTK3 silencing with co-treatment: MCF7, LMTK3 siRNA plus compound
Description: (A) MCF7 cells (1×10^6) were plated in 10 cm^2 plates in phenol red-free DMEM containing 10% DSS. The following day, cells were transfected with 20 nM CT siRNA or LMTK3 siRNA for 72 h and then treated or not (ET-OH) with E2 (10 nM) for 24 h. Cells were harvested, lysed and equal protein amounts were subjected to Western Blotting analysis using the indicated antibodies. β-actin was used as a control for sample loading. (B) Quantitative analysis of ERα and LMTK3 protein levels is given as fold of control. […] (C) MCF7 cells (5×10^4) were plated in 24-well plates and transfected with 20 nM CT siRNA or LMTK3 siRNA for 48 h. Gene expression of ERα was measured by qRT-PCR.
(§1) Whole cell lysates were prepared using NP40 lysis buffer (50 mM Tris-HCl, pH 8.0, 150 mM NaCl, 10% (v/v) glycerol, 1% NP40, 5 mM dithiothreitol (DTT), 1 mM EDTA, 1 mM EGTA, 50 μM leupeptin and 30 μg/ml aprotinin). These extracts were then clarified by centrifugation at 15000 rpm for 15 min at 4° C. for western blotting. The bicinchoninic acid (BCA) protein assay (Pierce) was used to determine the protein concentration of the lysates. […] The membranes were then blocked in TBS containing 0.1% (v/v) Tween20 and 5% (w/v) non-fat milk for 1 h and subsequently probed overnight with different antibodies following extensive washing with TBS/Tween and incubation with HRP-conjugated goat anti-rabbit IgG or goat anti-mouse IgG (1:1000 dilution) for 45 mins. Enhanced chemiluminescence (ECL) detection then allowed detection of the immunocomplexes. The intensity of the bands were quantified using Image J software (NIH, Bethesda, Md.).
as §1, with “45 min.” for “45 mins.”, “the immuno-complexes.” for “the immunocomplexes.”, “bands was” for “bands were”

LMTK3 kinase domain = biological target: T1, LMTK3 kinase domain (Homo sapiens, UniProt Q96Q04); experiment: LMTK3 inhibitor screening assay (CisBio KinEASE STK S1 kit, ratiometric fluorescent read-out); type: biochemical; settings: for Average % Inhibition / Average pIC50: 10 nM LMTK3, 1 μM S1 peptide, ATP 10 μM; for Average pIC50: 120 mins at 37° C., N=5
T1 construct: GST (N); made in house; host or cells: insect cells
T1 sequence (Q96Q04 133-415): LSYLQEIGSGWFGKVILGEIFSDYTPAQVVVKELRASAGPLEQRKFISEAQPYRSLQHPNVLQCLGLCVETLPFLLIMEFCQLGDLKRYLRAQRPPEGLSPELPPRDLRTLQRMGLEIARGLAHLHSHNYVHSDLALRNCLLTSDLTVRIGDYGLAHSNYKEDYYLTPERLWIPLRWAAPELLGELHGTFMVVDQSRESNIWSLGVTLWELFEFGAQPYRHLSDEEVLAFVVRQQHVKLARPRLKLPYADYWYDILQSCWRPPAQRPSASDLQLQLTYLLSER
Description: This exemplary assay has been developed to find inhibitors of LMTK3. The LMTK3 kinase domain (amino acids 133-415 of the full length kinase sequence, with an N-terminal GST tag) was expressed in insect cells and isolated via the GST N-terminal epitope.
Kinase reactions are set up in the presence of 1% DMSO with ATP added at around KM (=10 μM). Kinase activity is monitored using the CisBio KinEASE STK S1 kit using a ratiometric fluorescent read-out at 665 and 620 nm. The assay uses 10 nM LMTK3, 1 μM S1 peptide, 10 mM MgCl2 in the manufacturer buffer with extension of reaction time to 120 mins at 37° C.
Screening was performed in 384 low volume black microtitre plates with a final volume of 20 μl. The reaction was stopped with the addition of EDTA and detection reagents and fluorescence read on Pherastar. Data was normalised to the high control as specified by no inhibition and the low controls, equating to no activity (absence of ATP). Inhibitor activity was determined using concentration response curves, and using a four parameter fit to identify pIC50 values. Assay robustness was calculated using Z prime.

LMTK3 gene expression = LMTK3 gene expression after E2 or tamoxifen; type: cell-based
Description: Total RNA was isolated using the RNeasy kit (Qiagen). Reverse transcription was performed using high capacity cDNA reverse transcription kit (Applied Biosystems). RT-qPCR analysis was performed on a 7900HT Thermocycler (Applied Biosystems) using TaqMan mastermix and primers for TFF1, PGR, GREB1, FOXO3, FOXM1, LMTK1, LMTK2, LMTK3, MCL1 and GAPDH cDNAs, purchased from Applied Biosystems.

[2] = system: Tamoxifen resistant cell lines (LCC9, MLET5, BT-474); experiment: WST-1 cell proliferation assay in tamoxifen resistant cell lines; type: cell-based; settings: 20 nM siRNA, Tamoxifen 100 nM
Description: Tamoxifen resistant cell lines (LCC9, MLET5, BT-474) were transfected with 20 nM of control siRNA or LMTK3 siRNA in the presence or absence of Tamoxifen (100 nM). Cells were subjected to the WST-1 cell proliferation assay, on the day of transfection (day 0) and then consecutive 48 h intervals. Absorbance was measured at 460 nm. Results represent the mean of three experiments per cell line ±SE.
FIG. 28 Effects of LMTK3 silencing in tamoxifen-resistant cell lines. (a) BT-474, (b) MLET5 and, (c) LCC9 cells were transfected with LMTK3 siRNA in the presence or absence of tamoxifen (100 nM). Comparisons are shown amongst: i) siControl-transfected and tamoxifen treated cells (*), ii) siControl- and siLMTK3-transfected cells ($) and iii) tamoxifen treated and siLMTK3-transfected cells (p<0.05—Student's t test). Western blotting of AIB1 and p-ERα S118 protein expression levels are shown.
The colorimetric Rapid Cell Proliferation kit (Calbiochem, UK) was used. The assay is based on the incubation of cells with the tatrazolium salt WST-1, which is cleaved by mitochondrial dehydrogenases, functional only in viable cells. […] The following day, cells were incubated with the WST-1 for 30 min at 37° C., according to manufacturer's instructions, and the absorbance read with the microplate reader at 460 nm was considered to be Day 0. […] Readings were repeated consecutively in 48 h intervals. […]

CCCCCCCCCCCCCC(=O)O[C@@H]1[C@@H](C)[C@@]2(O)[C@@H](C=C(CO)C[C@]3(O)C(=O)C(C)=C[C@@H]23)[C@@H]2C(C)(C)[C@]12OC(C)=O [PMA]
ERα protein levels under LMTK3 silencing with co-treatment [1]: further degrades ERα

C[C@]12CC[C@@H]3c4ccc(O)cc4CC[C@H]3[C@@H]1CC[C@@H]2O [E2, Estradiol]
decrease of ERα protein levels ([1]; MCF7, E2 10 nM 24 h or 20 nM siRNA 72 h): ~40%

CN[C@@H]1C[C@H]2O[C@@](C)([C@@H]1OC)n1c3ccccc3c3c4c(c5c6ccccc6n2c5c31)C(=O)NC4 [Staurosporine]
IC50 (LMTK3 kinase domain): 0.0024 nM | Average % Inhibition (LMTK3 kinase domain): 108.86%

CC(C)C[C@@H](C=O)NC(=O)[C@H](CC(C)C)NC(=O)[C@H](CC(C)C)NC(=O)OCc1ccccc1 [MG132] (Cbz-Leu-Leu-Leu-aldehyde)
ERα protein levels under LMTK3 silencing with co-treatment [1]: partly rescued ERα degradation

COc1ccc2c(c1)c(C1=C(c3c[nH]c4ccccc34)C(=O)NC1=O)cn2CCCN(C)C [Go 6983]
ERα protein levels under LMTK3 silencing with co-treatment [1]: partly rescues the LMTK3 siRNA-induced down-regulation of ERα

CN(C)CCCn1cc(C2=C(c3c[nH]c4ccccc34)C(=O)NC2=O)c2ccccc21 [GF109203X]
Average % Inhibition (LMTK3 kinase domain): 107.89% | Average pIC50 (LMTK3 kinase domain): 9.88

COC(=O)[C@@]1(O)C[C@H]2O[C@]1(C)n1c3ccccc3c3c4c(c5c6ccccc6n2c5c31)C(=O)NC4 [K-252a]
IC50 (LMTK3 kinase domain): 79.4 nM | Average % Inhibition (LMTK3 kinase domain): 98.91%

CCCCCCOC(=O)[C@]1(O)C[C@@H]2O[C@@]1(C)n1c3ccccc3c3c4c(c5c6ccccc6n2c5c31)C(=O)NC4 [KT5720]
Average % Inhibition (LMTK3 kinase domain): 98.65% | Average pIC50 (LMTK3 kinase domain): 9.93

CC/C(=C(\c1ccccc1)c1ccc(OCCN(C)C)cc1)c1ccccc1 [Tamoxifen]
LMTK3 expression (LMTK3 gene expression): up-regulated | increase of ERα protein levels ([1]; MCF7, Tam 100 nM 24 h): ~50% | effect on growth of tamoxifen-resistant cell lines [2]: slightly affected basal cell growth
